According to patent publication US20240368667A1, “RAPID, LABEL-FREE ANTIBIOTIC SUSCEPTIBILITY OF BACTERIA DIRECTLY FROM POSITIVE BLOOD OR BODILY FLUID/CULTURE” (priority 2021, published 2024):
Converted amounts (≈) assume the structure as drawn. Like-named read-outs stand apart in the source and are kept apart here. Each block holds one compound with its values, some of them ahead of it.

How the values were obtained:
[1] = system: E. coli; experiment: Broth microdilution (BMD) MIC; format: cell-based, Escherichia coli; parameters: key to susceptibility classification, BMD: (S) sensitive; (I) intermediate; (R) resistant; settings: broth microdilution; for MIC: Escherichia coli, read-out: Minimum inhibitory concentration, BMD
Description: (§1) Microbroth dilution for minimum inhibitory concentrations (MIC) with and without sucrose recovery. To isolate bacteria without sucrose, culture media from positive BacT/alert FA PLUS aerobic culture bottles (bioMérieux, Durham, NC) was serially diluted and plated onto LB agar (Lennox; Sigma-Aldrich, St. Louis, MO). Bacterial suspensions were prepared by resuspending colonies in CAMHB with incubation on a MaxQ 4000 incubator shaker (Thermo Fisher Scientific, Waltham, MA) at 37° C. and ˜225 rpm for 3 hours. Bacteria recovered via Method 2 were diluted 10-fold in CAMHB. Following incubation or sucrose recovery and dilution, bacterial suspensions were adjusted to ˜0.004 OD600 with CAMHB and a 50-μL aliquot distributed to each well of a 96-well plate containing CAMHB with and without clinically relevant antibiotics (2-fold dilution series). Gram-negative plates included: ceftazidime (3rd generation cephalosporin, RPI corp., Mount Prospect, IL), cefepime (4th generation cephalosporin, Chem-Impex Int'l, Wood Dale, IL), meropenem (carbapenem, Tokyo Chemical Industry, Tokyo, Japan), levofloxacin (quinolone, Alfa Aesar, Haverhill, MA), and tobramycin (aminoglycoside, MP Biomedicals LLC, Santa Ana, CA), while S. aureus plates contained: oxacillin (beta-lactam, Sigma-Aldrich, St. Louis, MO), vancomycin (glycopeptide, Santa Cruz Biotechnology, Dallas, TX), erythromycin (macrolide, Sigma-Aldrich, St. Louis, MO), clindamycin ([…]), and ciprofloxacin (fluoroquinolone, Sigma-Aldrich, St. Louis, MO). Antibiotic plates were incubated at 37° C. for 16-20 hours (gram-negative) or 35° C. for 24 hours (S. aureus), at which time, plates were removed from the incubator and visually inspected for bacterial growth. The MIC was set at the lowest antibiotic concentration at which no growth was detected.

[2] = system: P. aeruginosa; experiment: Direct flow cytometric AST (high-throughput flow cytometry, HTFC) of sucrose-recovered bacteria; format: cell-based, Pseudomonas aeruginosa; parameters: key to susceptibility classification, HTFC: (S) sensitive; (I) intermediate; (R) resistant; settings: for MIC: Pseudomonas aeruginosa, read-out: Minimum inhibitory concentration, HTFC
Description: AST workflow using bacteria recovered directly from positive blood culture. A 1-mL aliquot of bacteria recovered using separation method 2 was diluted 10-fold in CAMHB, the OD600 adjusted to ˜0.01, and a 50 μL aliquot distributed into each well of a 96-well plate containing CAMHB with and without ceftazidime, tobramycin, and either meropenem (E. coli and P. aeruginosa) or oxacillin (S. aureus). Following Clinical and Laboratory Standards Institute (CLSI) guidelines^33, 2% sodium chloride (NaCl) was present in wells containing oxacillin to assist in the detection of methicillin-resistant S. aureus (MRSA). […] To account for observed differences in doubling and lag times, E. coli and P. aeruginosa were incubated for 4 hours at 37° C., while S. aureus was incubated for 9 hours at 35° C. After incubation, antibiotic plates were removed from the incubator and directly stored on ice (i.e. no post-processing) until high-throughput flow cytometry (BD LSRFortessa with HTS-system, BD, Franklin Lakes, NJ). No-antibiotic controls and antibiotic-treated samples were handled identically.
MIC Determination by flow cytometry. Because antibiotic effects are observed in both the position of scatter signatures (morphology changes) and count rates (growth inhibition), a modified count rate, accounting for scatter position, was used to evaluate susceptibility. Briefly, no-antibiotic control populations (triplicate) were pooled, binned, and a convex hull boundary set at 1-standard deviation above the background (not including bins with zero counts) was drawn. […] The overlap ratio, measuring changes in morphology, was then computed by dividing the number of sample events within the no-antibiotic control boundary by the total number of events within the sample. As an increase in count rate attributed to viable bacteria in antibiotic-treated samples is not scientifically meaningful, the fractional overlap was multiplied by the minimum of the control and sample count rates to generate a modified count rate accounting for antibiotic-induced morphological changes. All modified count rates were normalized by the average of the no-antibiotic controls. For automatic MIC determination, normalized count rates corresponding to n (index of predicted MIC), n+1, n+2 were iteratively fit to a linear function with a frameshift of n+1 between iterations (FIGS. 8 and 9). […] A threshold of −0.01 instead of zero was used to mitigate the influence of small fluctuations in normalized count rates on susceptibility determinations.

[3] = system: P. aeruginosa; experiment: Broth microdilution (BMD) MIC; format: cell-based, Pseudomonas aeruginosa; parameters: key to susceptibility classification, BMD: (S) sensitive; (I) intermediate; (R) resistant; settings: for MIC: Pseudomonas aeruginosa
Description: as §1

[4] = system: P. aeruginosa 77; experiment: Microbroth dilution MIC with and without sucrose recovery; format: cell-based, Pseudomonas aeruginosa; settings: MIC given as multiple of S/I/R; for minimum inhibitory concentration (MIC), Standard: P. aeruginosa 77 recovered by standard plating
Description: as §1
Influence of Sucrose on Bacterial MIC. To rule out the potential effect of sucrose exposure in bacterial antibiotic susceptibility, microbroth dilution studies were performed on bacteria recovered using standard practices (i.e. plating following positive blood culture) and through selective lysis coupled with centrifugation through the sucrose cushion (Method 2).

[5] = P. aeruginosa Blood Culture B, antibiotic 4 hours (37° C.)
[6] = P. aeruginosa Blood Culture C, antibiotic 4 hours (37° C.)
[7] = P. aeruginosa PA7, antibiotic 4 hours (37° C.)
[8] = P. aeruginosa PA46, antibiotic 4 hours (37° C.)
[9] = P. aeruginosa PA49, antibiotic 4 hours (37° C.)
[10] = P. aeruginosa PA81, antibiotic 4 hours (37° C.)
[11] = P. aeruginosa PAO1, antibiotic 4 hours (37° C.)
[12] = 4 h, P. aeruginosa Blood Culture B, antibiotic 4 hours (37° C.)
[13] = 4 h, P. aeruginosa Blood Culture C, antibiotic 4 hours (37° C.)
[14] = 4 h, P. aeruginosa PA7, antibiotic 4 hours (37° C.)
[15] = 4 h, P. aeruginosa PA46, antibiotic 4 hours (37° C.)
[16] = 4 h, P. aeruginosa PA49, antibiotic 4 hours (37° C.)
[17] = 4 h, P. aeruginosa PA81, antibiotic 4 hours (37° C.)
[18] = PAO1, 4 h, P. aeruginosa PAO1, antibiotic 4 hours (37° C.)
[19] = P. aeruginosa Blood Culture B, broth microdilution
[20] = P. aeruginosa Blood Culture C, broth microdilution
[21] = P. aeruginosa PA7, broth microdilution
[22] = P. aeruginosa PA46, broth microdilution
[23] = P. aeruginosa PA49, broth microdilution
[24] = P. aeruginosa PA81, broth microdilution
[25] = P. aeruginosa PAO1, broth microdilution
[26] = P. aeruginosa Blood Culture B, broth microdilution, read-out: Minimum inhibitory concentration, BMD
[27] = P. aeruginosa Blood Culture C, broth microdilution, read-out: Minimum inhibitory concentration, BMD
[28] = P. aeruginosa PA7, broth microdilution, read-out: Minimum inhibitory concentration, BMD
[29] = P. aeruginosa PA46, broth microdilution, read-out: Minimum inhibitory concentration, BMD
[30] = P. aeruginosa PA49, broth microdilution, read-out: Minimum inhibitory concentration, BMD
[31] = P. aeruginosa PA81, broth microdilution, read-out: Minimum inhibitory concentration, BMD
[32] = PAO1, P. aeruginosa PAO1, broth microdilution, read-out: Minimum inhibitory concentration, BMD

MIC ([1]; E. coli Blood Culture A): ≤ 0.06 µg/mL
MIC ([1]; E. coli Blood Culture B): ≤ 0.06 µg/mL
MIC ([1]; E. coli EC37): ≤ 0.06 µg/mL
MIC ([1]; E. coli EC-bank): 2 µg/mL (≈ 5.22 µM)
MIC ([1]; E. coli Mu76): 0.5 µg/mL (≈ 1.3 µM)
MIC ([1]; E. coli Mu218): ≤ 0.06 µg/mL
MIC ([1]; E. coli Mu890): ≤ 0.06 µg/mL
MIC [3, 26]: 8 µg/mL (≈ 20.9 µM)
MIC [3, 27]: 0.25 µg/mL (≈ 0.652 µM)
MIC [3, 28]: 1 µg/mL (≈ 2.61 µM)
MIC [3, 29]: 0.25 µg/mL (≈ 0.652 µM)
MIC [3, 30]: 0.5 µg/mL (≈ 1.3 µM)
MIC [3, 31]: 8 µg/mL (≈ 20.9 µM)
MIC ([3]; P. aeruginosa, strain not named (FIG. 13), read-out: MIC as determined by broth microdilution): 1 µg/mL (≈ 2.61 µM)
MIC [3, 32]: 0.5 µg/mL (≈ 1.3 µM)
minimum inhibitory concentration (MIC), Standard [4]: ⅛S
SMILES: C[C@@H](O)[C@H]1C(=O)N2C(C(=O)O)=C(S[C@@H]3CN[C@H](C(=O)N(C)C)C3)[C@H](C)[C@H]12 [Meropenem, meropenem]
susceptibility classification, BMD ([1]; E. coli Blood Culture A): (S)
susceptibility classification, BMD ([1]; E. coli Blood Culture B): (S)
susceptibility classification, BMD ([1]; E. coli EC37): (S)
susceptibility classification, BMD ([1]; E. coli EC-bank): (I)
susceptibility classification, BMD ([1]; E. coli Mu76): (S)
susceptibility classification, BMD ([1]; E. coli Mu218): (S)
susceptibility classification, BMD ([1]; E. coli Mu890): (S)
susceptibility classification, HTFC [2, 5]: (S)
susceptibility classification, HTFC [2, 6]: (S)
susceptibility classification, HTFC [2, 7]: (S)
susceptibility classification, HTFC [2, 8]: (S)
susceptibility classification, HTFC [2, 9]: (S)
susceptibility classification, HTFC [2, 10]: (R)
susceptibility classification, HTFC [2, 11]: (S)
MIC [2, 12]: 2 µg/mL (≈ 5.22 µM)
MIC [2, 13]: 0.125 µg/mL (≈ 0.326 µM)
MIC [2, 14]: 2 µg/mL (≈ 5.22 µM)
MIC [2, 15]: 1 µg/mL (≈ 2.61 µM)
MIC [2, 16]: 0.5 µg/mL (≈ 1.3 µM)
MIC [2, 17]: 8 µg/mL (≈ 20.9 µM)
MIC [2, 18]: 2 µg/mL (≈ 5.22 µM)
susceptibility classification, BMD [3, 19]: (R)
susceptibility classification, BMD [3, 20]: (S)
susceptibility classification, BMD [3, 21]: (S)
susceptibility classification, BMD [3, 22]: (S)
susceptibility classification, BMD [3, 23]: (S)
susceptibility classification, BMD [3, 24]: (R)
susceptibility classification, BMD [3, 25]: (S)

MIC ([1]; E. coli Blood Culture A): 16 µg/mL (≈ 29.3 µM)
MIC ([1]; E. coli Blood Culture B): 64 µg/mL (≈ 117 µM)
MIC ([1]; E. coli EC37): 32 µg/mL (≈ 58.5 µM)
MIC ([1]; E. coli EC-bank): 32 µg/mL (≈ 58.5 µM)
MIC ([1]; E. coli Mu76): 2 µg/mL (≈ 3.66 µM)
MIC ([1]; E. coli Mu218): 32 µg/mL (≈ 58.5 µM)
MIC ([1]; E. coli Mu890): 0.5 µg/mL (≈ 0.915 µM)
MIC [3, 26]: 4 µg/mL (≈ 7.32 µM)
MIC [3, 27]: 1 µg/mL (≈ 1.83 µM)
MIC [3, 28]: 128 µg/mL (≈ 234 µM)
MIC [3, 29]: 1 µg/mL (≈ 1.83 µM)
MIC [3, 30]: 2 µg/mL (≈ 3.66 µM)
MIC [3, 31]: 4 µg/mL (≈ 7.32 µM)
MIC [3, 32]: 1 µg/mL (≈ 1.83 µM)
minimum inhibitory concentration (MIC), Standard [4]: ½S
minimum inhibitory concentration (MIC), Sucrose ([4]; P. aeruginosa 77 recovered through sucrose (Method 2)): ¼S
SMILES: CC(C)(O/N=C(\C(=O)N[C@@H]1C(=O)N2C(C(=O)[O-])=C(C[n+]3ccccc3)CS[C@H]12)c1csc(N)n1)C(=O)O [Ceftazidime, ceftazidime]
susceptibility classification, BMD ([1]; E. coli Blood Culture A): (R)
susceptibility classification, BMD ([1]; E. coli Blood Culture B): (R)
susceptibility classification, BMD ([1]; E. coli EC37): (R)
susceptibility classification, BMD ([1]; E. coli EC-bank): (R)
susceptibility classification, BMD ([1]; E. coli Mu76): (S)
susceptibility classification, BMD ([1]; E. coli Mu218): (R)
susceptibility classification, BMD ([1]; E. coli Mu890): (S)
susceptibility classification, HTFC [2, 5]: (S)
susceptibility classification, HTFC [2, 6]: (S)
susceptibility classification, HTFC [2, 7]: (S)
susceptibility classification, HTFC [2, 8]: (S)
susceptibility classification, HTFC [2, 9]: (S)
susceptibility classification, HTFC [2, 10]: (S)
susceptibility classification, HTFC [2, 11]: (S)
MIC [2, 12]: 4 µg/mL (≈ 7.32 µM)
MIC [2, 13]: 2 µg/mL (≈ 3.66 µM)
MIC [2, 14]: 8 µg/mL (≈ 14.6 µM)
MIC [2, 15]: 2 µg/mL (≈ 3.66 µM)
MIC [2, 16]: 4 µg/mL (≈ 7.32 µM)
MIC [2, 17]: 8 µg/mL (≈ 14.6 µM)
MIC [2, 18]: 1 µg/mL (≈ 1.83 µM)
susceptibility classification, BMD [3, 19]: (S)
susceptibility classification, BMD [3, 20]: (S)
susceptibility classification, BMD [3, 21]: (R)
susceptibility classification, BMD [3, 22]: (S)
susceptibility classification, BMD [3, 23]: (S)
susceptibility classification, BMD [3, 24]: (S)
susceptibility classification, BMD [3, 25]: (S)
